Data taken from patent US20090281157A1, “Active Ingredient Combinations With Insecticidal and Acaricidal Properties” (Bayer Cropscience AG, priority 2006, published 2009).

What was measured:
Assay type in all cases: in vivo
Aphis gossypii = Aphis gossypii test (dipped cotton leaves)
Protocol: (§1) To produce a suitable preparation of active compound, 1 part by weight of active compound is mixed with the stated amounts of solvent and emulsifier, and the concentrate is diluted with emulsifier-containing water to the desired concentration.
Cotton leaves (Gossypium herbaceum) which are heavily infested by the cotton aphid (Aphis gossypii) are treated by being dipped into the active compound preparation of the desired concentration.
(§2) After the desired period of time, the kill in % is determined. 100% means that all aphids have been killed; 0% means that none of the aphids have been killed. The kill rates determined are entered into Colby's formula.

Myzus persicae = Myzus persicae test (spray on infested cabbage leaves)
Protocol: (§3) To produce a suitable preparation of active compound, 1 part by weight of active compound is mixed with the stated amounts of solvents and emulsifier, and the concentrate is diluted with emulsifier-containing water to the desired concentration.
Cabbage leaves (Brassica oleracea) which are heavily infested by the Green peach aphid (Myzus persicae), are treated by spraying with the active compound preparation of the desired concentration.
as §2

Tetranychus urticae = assay: Tetranychus test (OP-resistant/spray treatment) on bean leaf disks
Protocol: as §1
Disks of bean leaves (Phaseolus vulgaris) which are infested by all stages of the greenhouse red spider mite (Tetranychus urticae) are sprayed with an active compound preparation of the desired concentration.
After the desired period of time, the activity in % is determined. 100% means that all spider mites have been killed; 0% means that none of the spider mites have been killed.

Phaedon cochleariae = Phaedon cochleariae larvae test (sprayed cabbage leaves)
Protocol: as §3
Cabbage leaves (Brassica oleracea) are treated by spraying with the active compound preparation of the desired concentration and are populated with larvae of the mustard beetle (Phaedon cochleariae) while the leaves are still moist.
After the desired period of time, the kill in % is determined. 100% means that all beetle larvae have been killed; 0% means that none of the beetle larvae have been killed. The kill rates determined are entered into Colby's formula.

Spodoptera frugiperda = Spodoptera frugiperda larvae test (sprayed cabbage leaves)
Protocol: as §3
Cabbage leaves (Brassica oleracea) are treated by spraying with the active compound preparation of the desired concentration and are populated with larvae of the armyworm (Spodoptera frugiperda) while the leaves are still moist.
After the desired period of time, the kill in % is determined. 100% means that all caterpillars have been killed; 0% means that none of the caterpillars have been killed. The kill rates determined are entered into Colby's formula.

CC1(C)C(/C=C(\Cl)C(F)(F)F)C1C(=O)OC(C#N)c1cccc(Oc2ccccc2)c1 [L-cyhalothrin, lambda-cyhalothrin]
Kill in % after 1d (Aphis gossypii; 0.16 ppm): 20%
Kill in % after 1d (Myzus persicae; 0.16 g/ha): 10%
Kill in % after 6d (Tetranychus urticae; 0.032 g/ha): 0%

CC1(C)C(C=C(Cl)Cl)C1C(=O)OC(C#N)c1cccc(Oc2ccccc2)c1 (stereo not drawn) [alpha-cypermethrin]
Kill in % after 6d (Phaedon cochleariae; 0.8 g/ha): 67%

Cc1c(COC(=O)C2C(/C=C(\Cl)C(F)(F)F)C2(C)C)cccc1-c1ccccc1 (stereo not shown) [bifenthrin]
Kill in % after 6d (Spodoptera frugiperda; 0.8 g/ha): 0%
Kill in % after 1d (Myzus persicae; 0.0064 g/ha): 0%

CO[C@H]1CC[C@]2(CC1)NC(=O)C(c1cc(C)ccc1C)=C2O [compound (I)]
Kill in % after 1d (Aphis gossypii; 4 ppm): 0%

CCOC(=O)OC1=C(c2cc(C)ccc2C)C(=O)N[C@]12CC[C@@H](OC)CC2 [compound (II)]
Kill in % after 6d (Spodoptera frugiperda; 20 g/ha): 17%
Kill in % after 6d (Spodoptera frugiperda; 100 g/ha): 67%
Kill in % after 6d (Phaedon cochleariae; 4 g/ha): 0%
Kill in % after 6d (Phaedon cochleariae; 20 g/ha): 0%
Kill in % after 6d (Phaedon cochleariae; 100 g/ha): 50%
Kill in % after 1d (Myzus persicae; 0.8 g/ha): 20%
Kill in % after 1d (Myzus persicae; 20 g/ha): 0%
Kill in % after 6d (Tetranychus urticae; 0.8 g/ha): 50%
Kill in % after 2d (Tetranychus urticae; 4 g/ha): 50%
Kill in % after 6d (Tetranychus urticae; 4 g/ha): 90%
Kill in % after 2d (Tetranychus urticae; 100 g/ha): 70%

CCOC(=O)OC1=C(c2cc(C)ccc2C)C(=O)NC12CCC(OC)CC2 (stereo not shown) [compound (II-a)]
Kill in % after 6d (Spodoptera frugiperda; 20 g/ha): 17%
Kill in % after 6d (Spodoptera frugiperda; 100 g/ha): 50%
Kill in % after 6d (Phaedon cochleariae; 4 g/ha): 0%
Kill in % after 6d (Phaedon cochleariae; 20 g/ha): 0%
Kill in % after 6d (Phaedon cochleariae; 100 g/ha): 83%
Kill in % after 1d (Myzus persicae; 0.8 g/ha): 20%
Kill in % after 1d (Myzus persicae; 20 g/ha): 0%
Kill in % after 6d (Tetranychus urticae; 0.8 g/ha): 60%
Kill in % after 2d (Tetranychus urticae; 4 g/ha): 30%
Kill in % after 6d (Tetranychus urticae; 4 g/ha): 90%
Kill in % after 2d (Tetranychus urticae; 100 g/ha): 40%

COC1CCC2(CC1)NC(=O)C(c1cc(C)ccc1C)=C2O (stereo not shown) [compound (Ia)]
Kill in % after 1d (Aphis gossypii; 4 ppm): 0%

CC1(C)C(C=C(Cl)Cl)C1C(=O)OC(C#N)c1cccc(Oc2ccccc2)c1 (stereo not shown) [cypermethrin]
Kill in % after 6d (Spodoptera frugiperda; 0.8 g/ha): 0%
Kill in % after 6d (Phaedon cochleariae; 0.8 g/ha): 17%

CC1(C)[C@H](C(=O)O[C@H](C#N)c2cccc(Oc3ccccc3)c2)[C@@H]1C=C(Br)Br [deltamethrin]
Kill in % after 2d (Tetranychus urticae; 0.032 g/ha): 10%

CC1(C)[C@H](/C=C(\Cl)C(F)(F)F)[C@@H]1C(=O)O[C@H](C#N)c1cccc(Oc2ccccc2)c1 [gamma-cyhalothrin]
Kill in % after 1d (Myzus persicae; 0.0064 g/ha): 0%

CC1(C)C(C=C(Cl)Cl)C1C(=O)OC(C#N)c1cccc(Oc2ccccc2)c1 (stereo not shown) [zeta-cypermethrin]
Kill in % after 6d (Phaedon cochleariae; 0.16 g/ha): 0%

CC1(C)C(C=C(Cl)Cl)C1C(=O)OC(C#N)c1ccc(F)c(Oc2ccccc2)c1 (stereo not drawn) [β-cyfluthrin, betacyfluthrin]
Kill in % after 1d (Myzus persicae; 0.0064 g/ha): 0%
Kill in % after 6d (Tetranychus urticae; 0.0064 g/ha): 0%
